# Reference: the supplement of paper PMC11208160
# Test: recombinant barcode read abundance after kanamycin selection (control-corrected) (log10(CPM+1)); higher = more efficient recombination; sequences stand for … in AGTGCAGAGAAAATCGGCCAGTTTTCTCTGCCTGCAGTCCGCATGCCGT…ATTTATGCAGCGGACTGCCTTTCTCCCAAAGTGATAAACCGGACAGTATCATGGACCGGTTTTCCCGGTAATCCGTATTTGCAAGGTTGGTTTCACT; site = the 11-nt target
# In short: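 Targets were screened in pooled form in E. coli against IS621 bridge RNA target-binding loops. Recombination efficiency is based on barcode counts at recombinant junctions in counts per million, averaged and corrected for the control. Numbers are shown as log10(CPM+1), with duplicate plates on chloramphenicol/ampicillin LB agar (control) or chloramphenicol/ampicillin/kanamycin with 0.1 mM IPTG.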
sequence,measurement,value
"GAGTCCAGTTGGGTTCTAACCTGTTGCGTAC [GAGTCCACTAC_LTGcore_GT_RTGcore_GT] (site GAGTCCACTAC) (LTG core: GT, RTG core: GT)",recombinant barcode read abundance (log10),0.0422
"GAGTCCATATGGGTTCTAACCTGTTGCGTAG [GAGTCCACTAC_LTGcore_TA_RTGcore_CT] (site GAGTCCACTAC) (LTG core: TA, RTG core: CT)",recombinant barcode read abundance (log10),0.0591
"GAGTCCATGTGGGTTCTAACCTGTTGCGTAG [GAGTCCACTAC_LTGcore_TG_RTGcore_CT] (site GAGTCCACTAC) (LTG core: TG, RTG core: CT)",recombinant barcode read abundance (log10),0.0936
"GAGTCCTAGTGGGTTCTAACCTGTTGCCTCT [GAGTCCTCTAG_LTGcore_AG_RTGcore_AG] (site GAGTCCTCTAG) (LTG core: AG, RTG core: AG)",recombinant barcode read abundance (log10),0.0613
"GAGTCCTCTTGGGTTCTAACCTGTTGCCTAC [GAGTCCTCTAG_LTGcore_CT_RTGcore_GT] (site GAGTCCTCTAG) (LTG core: CT, RTG core: GT)",recombinant barcode read abundance (log10),1.02
"GAGTCCTCTTGGGTTCTAACCTGTTGCCTCT [GAGTCCTCTAG_LTGcore_CT_RTGcore_AG] (site GAGTCCTCTAG) (LTG core: CT, RTG core: AG)",recombinant barcode read abundance (log10),1.65
"GAGTCCTCTTGGGTTCTAACCTGTTGCCTGG [GAGTCCTCTAG_LTGcore_CT_RTGcore_CC] (site GAGTCCTCTAG) (LTG core: CT, RTG core: CC)",recombinant barcode read abundance (log10),1.39
"GAGTCCTCTTGGGTTCTAACCTGTTGCCTTG [GAGTCCTCTAG_LTGcore_CT_RTGcore_CA] (site GAGTCCTCTAG) (LTG core: CT, RTG core: CA)",recombinant barcode read abundance (log10),0.753
"GAGTCCTGATGGGTTCTAACCTGTTGCCTAG [GAGTCCTCTAG_LTGcore_GA_RTGcore_CT] (site GAGTCCTCTAG) (LTG core: GA, RTG core: CT)",recombinant barcode read abundance (log10),0.62
"GAGTCCTGATGGGTTCTAACCTGTTGCCTTC [GAGTCCTCTAG_LTGcore_GA_RTGcore_GA] (site GAGTCCTCTAG) (LTG core: GA, RTG core: GA)",recombinant barcode read abundance (log10),0.149
"GAGTCCTGGTGGGTTCTAACCTGTTGCCTCC [GAGTCCTCTAG_LTGcore_GG_RTGcore_GG] (site GAGTCCTCTAG) (LTG core: GG, RTG core: GG)",recombinant barcode read abundance (log10),0.0289
"GAGTCCTTTTGGGTTCTAACCTGTTGCCTAA [GAGTCCTCTAG_LTGcore_TT_RTGcore_TT] (site GAGTCCTCTAG) (LTG core: TT, RTG core: TT)",recombinant barcode read abundance (log10),0.219
"GAGTCCTTTTGGGTTCTAACCTGTTGCCTAG [GAGTCCTCTAG_LTGcore_TT_RTGcore_CT] (site GAGTCCTCTAG) (LTG core: TT, RTG core: CT)",recombinant barcode read abundance (log10),0.153
"GCGCGACAGTGGGTTCTAACCTGTTGCTTAG [GCGCGACCTAA_LTGcore_AG_RTGcore_CT] (site GCGCGACCTAA) (LTG core: AG, RTG core: CT)",recombinant barcode read abundance (log10),0.642
"GCGCGACCTTGGGTTCTAACCTGTTGCTTAC [GCGCGACCTAA_LTGcore_CT_RTGcore_GT] (site GCGCGACCTAA) (LTG core: CT, RTG core: GT)",recombinant barcode read abundance (log10),0.23
"GCGCGACCTTGGGTTCTAACCTGTTGCTTCC [GCGCGACCTAA_LTGcore_CT_RTGcore_GG] (site GCGCGACCTAA) (LTG core: CT, RTG core: GG)",recombinant barcode read abundance (log10),0.0108
"GCGCGACCTTGGGTTCTAACCTGTTGCTTCT [GCGCGACCTAA_LTGcore_CT_RTGcore_AG] (site GCGCGACCTAA) (LTG core: CT, RTG core: AG)",recombinant barcode read abundance (log10),0.345
"GCGCGACCTTGGGTTCTAACCTGTTGCTTGA [GCGCGACCTAA_LTGcore_CT_RTGcore_TC] (site GCGCGACCTAA) (LTG core: CT, RTG core: TC)",recombinant barcode read abundance (log10),0.0329
"GCGCGACGCTGGGTTCTAACCTGTTGCTTGC [GCGCGACCTAA_LTGcore_GC_RTGcore_GC] (site GCGCGACCTAA) (LTG core: GC, RTG core: GC)",recombinant barcode read abundance (log10),0.0645
"GCGCGACGTTGGGTTCTAACCTGTTGCTTAC [GCGCGACCTAA_LTGcore_GT_RTGcore_GT] (site GCGCGACCTAA) (LTG core: GT, RTG core: GT)",recombinant barcode read abundance (log10),0.0144
"GCGCGACTATGGGTTCTAACCTGTTGCTTAG [GCGCGACCTAA_LTGcore_TA_RTGcore_CT] (site GCGCGACCTAA) (LTG core: TA, RTG core: CT)",recombinant barcode read abundance (log10),0.038
"GCGGGACACTGGGTTCTAACCTGTTGCCTGT [GCGGGACCTAG_LTGcore_AC_RTGcore_AC] (site GCGGGACCTAG) (LTG core: AC, RTG core: AC)",recombinant barcode read abundance (log10),0
"GCGGGACAGTGGGTTCTAACCTGTTGCCTCT [GCGGGACCTAG_LTGcore_AG_RTGcore_AG] (site GCGGGACCTAG) (LTG core: AG, RTG core: AG)",recombinant barcode read abundance (log10),0
"GCGGGACCCTGGGTTCTAACCTGTTGCCTGG [GCGGGACCTAG_LTGcore_CC_RTGcore_CC] (site GCGGGACCTAG) (LTG core: CC, RTG core: CC)",recombinant barcode read abundance (log10),1.52
"GCGGGACGCTGGGTTCTAACCTGTTGCCTGC [GCGGGACCTAG_LTGcore_GC_RTGcore_GC] (site GCGGGACCTAG) (LTG core: GC, RTG core: GC)",recombinant barcode read abundance (log10),0.0844
"GCGGGACGGTGGGTTCTAACCTGTTGCCTCC [GCGGGACCTAG_LTGcore_GG_RTGcore_GG] (site GCGGGACCTAG) (LTG core: GG, RTG core: GG)",recombinant barcode read abundance (log10),0.182
"GGACACCAGTGGGTTCTAACCTGTTGCCTAG [GGACACCCTAG_LTGcore_AG_RTGcore_CT] (site GGACACCCTAG) (LTG core: AG, RTG core: CT)",recombinant barcode read abundance (log10),0.143
"GGACACCAGTGGGTTCTAACCTGTTGCCTCT [GGACACCCTAG_LTGcore_AG_RTGcore_AG] (site GGACACCCTAG) (LTG core: AG, RTG core: AG)",recombinant barcode read abundance (log10),0.0138
"GGACACCCGTGGGTTCTAACCTGTTGCCTAG [GGACACCCTAG_LTGcore_CG_RTGcore_CT] (site GGACACCCTAG) (LTG core: CG, RTG core: CT)",recombinant barcode read abundance (log10),1.2
"GGACACCCTTGGGTTCTAACCTGTTGCCTAC [GGACACCCTAG_LTGcore_CT_RTGcore_GT] (site GGACACCCTAG) (LTG core: CT, RTG core: GT)",recombinant barcode read abundance (log10),1.33
"GGACACCCTTGGGTTCTAACCTGTTGCCTAG [GGACACCCTAG_LTGcore_CT_RTGcore_CT] (site GGACACCCTAG) (LTG core: CT, RTG core: CT)",recombinant barcode read abundance (log10),2.43
"GGACACCCTTGGGTTCTAACCTGTTGCCTTC [GGACACCCTAG_LTGcore_CT_RTGcore_GA] (site GGACACCCTAG) (LTG core: CT, RTG core: GA)",recombinant barcode read abundance (log10),0.732
"GGACACCCTTGGGTTCTAACCTGTTGCCTTG [GGACACCCTAG_LTGcore_CT_RTGcore_CA] (site GGACACCCTAG) (LTG core: CT, RTG core: CA)",recombinant barcode read abundance (log10),1.32
"GGACACCTCTGGGTTCTAACCTGTTGCCTAG [GGACACCCTAG_LTGcore_TC_RTGcore_CT] (site GGACACCCTAG) (LTG core: TC, RTG core: CT)",recombinant barcode read abundance (log10),0.117
